Reference: ChEMBL document CHEMBL1201862, “PubChem BioAssay data set” (2004)
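Five compound concentrations were applied to cells in 96-well plates for 48 hours; endpoints were derived by simple linear interpolation of the resulting dose-response curve. Here, GI50 denotes the concentration required for 50% inhibition of growth.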 Activity calls are given as the source filed them. Cut-off read from the data, not from the text of the source: active = GI50 up to about 1.1 µM and inactive = higher.

Columns and labels:
Experiment in all cases: DTP human tumour cell line panel, 48 h
OVCAR-8 = tested on: OVCAR-8
OVCAR-5 = tested on: OVCAR-5
SNB-19 = tested on: SNB-19
RXF 393 = tested on: RXF 393
Malme-3M = tested on: Malme-3M
OVCAR-4 = tested on: OVCAR-4
HCT-15 = tested on: HCT-15
MDA-MB-435 = tested on: MDA-MB-435
A549 = tested on: A549
786-0 = tested on: 786-0
K562 = tested on: K562
SR = tested on: SR
NCI-H460 = tested on: NCI-H460
HOP-92 = tested on: HOP-92
COLO 205 = tested on: COLO 205
MOLT-4 = tested on: MOLT-4
CCRF-CEM = tested on: CCRF-CEM
BT-549 = tested on: BT-549
SK-MEL-5 = tested on: SK-MEL-5
HL-60 = tested on: HL-60

Row | SMILES | GI50 (OVCAR-8) | GI50 (OVCAR-5) | GI50 (SNB-19) | GI50 (RXF 393) | GI50 (Malme-3M) | GI50 (OVCAR-4) | GI50 (HCT-15) [µM] | GI50 (MDA-MB-435) | GI50 (A549) | GI50 (786-0) | GI50 (K562) | GI50 (SR) | GI50 (NCI-H460) | GI50 (HOP-92) | GI50 (COLO 205) | GI50 (MOLT-4) | GI50 (CCRF-CEM) | GI50 (BT-549) | GI50 (SK-MEL-5) | GI50 (HL-60)
1 | CCCC[Si](CCCC)(CCCC)O[C@@H](/C=C/C(=O)OCC)[C@H](Cc1ccccc1)O[Si](CCCC)(CCCC)CCCC | > 100 µM (inactive) | > 100 µM (inactive) | > 100 µM (inactive) | > 100 µM (inactive) | > 100 µM (inactive) | > 100 µM (inactive) | > 100 | > 100 µM (inactive) | > 100 µM (inactive) | > 100 µM (inactive) | > 100 µM (inactive) | > 100 µM (inactive) | > 100 µM (inactive) | > 100 µM (inactive) | > 100 µM (inactive) | > 100 µM (inactive) | > 100 µM (inactive) | > 100 µM (inactive) | – | –
2 | COc1ccc2[nH]c3c(c2c1)CC(=O)N1CCC[C@H](C1)CC31OCCCO1 | > 100 µM (inactive) | > 100 µM (inactive) | > 100 µM (inactive) | 44.5 µM (inactive) | > 100 µM (inactive) | > 100 µM (inactive) | > 100 | > 100 µM (inactive) | > 100 µM (inactive) | > 100 µM (inactive) | – | > 100 µM (inactive) | > 100 µM (inactive) | 55 µM (inactive) | > 100 µM (inactive) | – | 64.6 µM (inactive) | > 100 µM (inactive) | > 100 µM (inactive) | –
3 | Nn1c(CCCCCCCCc2nnc(-c3c(O)ccc4ccccc34)n2N)nnc1-c1c(O)ccc2ccccc12 | > 100 µM (inactive) | > 100 µM (inactive) | > 100 µM (inactive) | – | > 100 µM (inactive) | > 100 µM (inactive) | > 100 | > 100 µM (inactive) | > 100 µM (inactive) | > 100 µM (inactive) | – | > 100 µM (inactive) | > 100 µM (inactive) | > 100 µM (inactive) | > 100 µM (inactive) | > 100 µM (inactive) | – | > 100 µM (inactive) | > 100 µM (inactive) | > 100 µM (inactive)
4 | CCOC(=O)C1=NOC2(C=C(Br)C(=O)C(Br)=C2)C1 | 2.04 µM (inactive) | 5.47 µM (inactive) | 19 µM (inactive) | 1.59 µM (inactive) | 0.625 µM (active) | 1.8 µM (inactive) | 2.03 | 1.76 µM (inactive) | 22 µM (inactive) | 0.659 µM (active) | 1.37 µM (inactive) | – | 6.55 µM (inactive) | 1.82 µM (inactive) | 0.991 µM (active) | < 0.0346 µM (active) | < 0.0132 µM (active) | 5.21 µM (inactive) | 7.67 µM (inactive) | 0.28 µM (active)
